Data from ChEMBL document CHEMBL5233212, “Recent advance in the development of novel, selective and potent FGFR inhibitors” (Eur J Med Chem, 2020).
Blank lines part the entries; values can stand above or below the compound they belong to.

Key:
NCI-H1581 = assay: Antiproliferative activity against human NCI-H1581 cells assessed as inhibition of cell growth incubated for 72 hrs by MTT colorimetric assay; assay type: functional, cell-based; details: NCI-H1581, 72 h
[1] = Antiproliferative activity against human KATO III stomach cancer cell line assessed as inhibition of cell growth incubated for 72 hrs by MTT colorimetric assay; assay type: functional, cell-based
RT-112 = assay: Antiproliferative activity against human RT-112 cells assessed as inhibition of cell growth incubated for 72 hrs by MTT colorimetric assay; assay type: functional, cell-based; details: RT-112, 72 h
KG-1 = assay: Antiproliferative activity against human KG-1 cells assessed as inhibition of cell growth incubated for 72 hrs by MTT colorimetric assay; assay type: functional, cell-based; details: KG-1, 72 h
SNU-16 = assay: Antiproliferative activity against human SNU-16 cells assessed as inhibition of cell growth incubated for 72 hrs by MTT colorimetric assay; assay type: functional, cell-based; details: SNU-16, 72 h
[2] = target: T1, Fibroblast growth factor receptor 1 (Homo sapiens, UniProt P11362); assay: Inhibition of FGFR1 (unknown origin) in presence of ATP by caliper mobility shift assay
Target sequence in this assay (P11362 whole entry): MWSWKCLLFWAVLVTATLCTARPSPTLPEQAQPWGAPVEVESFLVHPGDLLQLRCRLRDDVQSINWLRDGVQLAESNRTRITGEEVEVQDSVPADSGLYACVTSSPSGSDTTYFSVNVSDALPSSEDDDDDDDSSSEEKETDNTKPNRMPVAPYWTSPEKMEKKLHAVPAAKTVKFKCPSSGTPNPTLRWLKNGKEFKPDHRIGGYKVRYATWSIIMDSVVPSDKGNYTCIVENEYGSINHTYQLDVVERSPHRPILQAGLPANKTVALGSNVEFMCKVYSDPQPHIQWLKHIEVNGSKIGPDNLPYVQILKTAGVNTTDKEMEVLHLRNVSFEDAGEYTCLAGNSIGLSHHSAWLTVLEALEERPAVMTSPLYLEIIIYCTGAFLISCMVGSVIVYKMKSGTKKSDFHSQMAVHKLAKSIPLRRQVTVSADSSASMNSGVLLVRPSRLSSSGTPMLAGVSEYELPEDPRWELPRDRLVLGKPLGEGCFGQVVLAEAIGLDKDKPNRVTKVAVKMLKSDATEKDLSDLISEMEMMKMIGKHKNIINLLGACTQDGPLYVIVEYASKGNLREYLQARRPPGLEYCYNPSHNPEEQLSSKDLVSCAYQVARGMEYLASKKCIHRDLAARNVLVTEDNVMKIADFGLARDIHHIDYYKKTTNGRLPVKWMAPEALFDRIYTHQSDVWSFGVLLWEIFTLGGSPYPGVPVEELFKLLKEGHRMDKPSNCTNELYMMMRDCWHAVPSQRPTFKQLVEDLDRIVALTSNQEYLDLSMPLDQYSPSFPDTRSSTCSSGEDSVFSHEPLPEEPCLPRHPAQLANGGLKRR

[3] = target: Fibroblast growth factor receptor (Homo sapiens, UniProt P22607+P11362+P22455+P21802); assay: Inhibition of FGFR (unknown origin) using […] incubated for 60 mins by Kinase-Glo Plus luminescence assay; assay type: protein assay
[4] = target: T1, Fibroblast growth factor receptor 1; assay: Inhibition of human recombinant FGFR1 using Poly (Glu, Tyr)4:1 as substrate at 10 nM incubated for 90 mins in presence of ATP by ELISA based spectrophotometer assay
Target sequence in this assay (P11362 22-822 limits assumed): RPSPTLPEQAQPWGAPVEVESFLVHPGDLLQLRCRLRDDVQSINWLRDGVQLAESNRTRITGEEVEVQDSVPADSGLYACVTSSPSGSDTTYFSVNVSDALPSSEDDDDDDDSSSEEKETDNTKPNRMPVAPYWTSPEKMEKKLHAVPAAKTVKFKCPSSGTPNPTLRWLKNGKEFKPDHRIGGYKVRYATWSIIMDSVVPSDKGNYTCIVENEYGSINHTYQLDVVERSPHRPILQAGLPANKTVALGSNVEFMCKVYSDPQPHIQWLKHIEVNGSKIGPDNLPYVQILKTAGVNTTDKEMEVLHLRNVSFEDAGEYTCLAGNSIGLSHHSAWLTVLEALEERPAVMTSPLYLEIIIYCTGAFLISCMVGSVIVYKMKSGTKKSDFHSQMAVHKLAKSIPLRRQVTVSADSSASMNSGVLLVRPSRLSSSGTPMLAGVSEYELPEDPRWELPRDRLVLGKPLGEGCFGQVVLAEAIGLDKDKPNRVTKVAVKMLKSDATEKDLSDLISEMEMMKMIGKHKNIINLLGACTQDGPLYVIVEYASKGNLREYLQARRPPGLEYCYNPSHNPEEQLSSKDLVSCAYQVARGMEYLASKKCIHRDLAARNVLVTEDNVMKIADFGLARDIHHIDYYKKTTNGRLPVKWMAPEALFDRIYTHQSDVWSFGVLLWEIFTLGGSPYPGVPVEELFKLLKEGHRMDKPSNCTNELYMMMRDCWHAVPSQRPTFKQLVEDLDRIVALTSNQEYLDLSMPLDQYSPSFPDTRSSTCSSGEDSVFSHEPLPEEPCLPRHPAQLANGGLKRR

[5] = target: Tyrosine-protein kinase BTK (Homo sapiens, UniProt Q06187); assay: Inhibition of human BTK (382 to 659 residues) expressed in baculovirus infected Sf21 insect cells preincubated for 15 mins followed by ATP addition and measured upto 180 mins by microfluidic capillary electrophoresis analysis
Chain of Tyrosine-protein kinase BTK (Q06187 whole entry, the tested form may be a part): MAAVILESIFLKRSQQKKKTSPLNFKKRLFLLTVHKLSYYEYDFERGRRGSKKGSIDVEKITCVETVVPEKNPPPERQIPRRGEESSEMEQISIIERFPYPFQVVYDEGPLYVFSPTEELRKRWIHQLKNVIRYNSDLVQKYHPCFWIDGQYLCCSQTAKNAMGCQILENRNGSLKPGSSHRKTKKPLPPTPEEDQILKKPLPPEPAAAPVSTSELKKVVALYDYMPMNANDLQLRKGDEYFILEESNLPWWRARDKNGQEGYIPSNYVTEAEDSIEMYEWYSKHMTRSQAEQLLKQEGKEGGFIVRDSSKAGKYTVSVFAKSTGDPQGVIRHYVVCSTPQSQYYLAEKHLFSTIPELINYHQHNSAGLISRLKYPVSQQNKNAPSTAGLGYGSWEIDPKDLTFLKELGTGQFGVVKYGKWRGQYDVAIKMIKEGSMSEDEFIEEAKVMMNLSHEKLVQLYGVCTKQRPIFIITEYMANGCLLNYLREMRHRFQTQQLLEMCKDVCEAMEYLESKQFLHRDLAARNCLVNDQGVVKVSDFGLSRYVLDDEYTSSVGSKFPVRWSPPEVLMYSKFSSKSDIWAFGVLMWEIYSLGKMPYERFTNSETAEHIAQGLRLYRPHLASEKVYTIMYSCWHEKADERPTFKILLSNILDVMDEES

SMILES: COc1cc(/C=C2\CC/C(=C\c3ccc(OC(=O)C(C)C)c(OC)c3)C2=O)ccc1OC(=O)C(C)C
IC50 [2]: 2.6 µM

SMILES: Cc1nc(OCC(=O)N/N=C/c2ccc(Cl)cc2)c2c(C)nn(-c3ccccc3)c2n1
IC50 [3]: 9.59 µM

SMILES: CNc1ncc2cc(-c3cc(OC)cc(OC)c3Cl)c(=O)n(CCc3ccc(NC(=O)/C(C#N)=C/C(C)(C)N)cc3)c2n1
IC50 [5]: 0.0005 µM

Now from value to compound, other results behind:

IC50 (NCI-H1581): 0.391 µM
IC50 (SNU-16): 0.0248 µM
SMILES: Cc1n[nH]c2ccc(-c3cc(N[C@@H](CO)c4ccccc4)cnc3-c3cc(F)ccc3O)cc12
IC50 [1]: 0.156 µM
IC50 (RT-112): 0.122 µM
IC50 (KG-1): 0.0145 µM

IC50 [2]: 3 µM
SMILES: CCC(=O)Oc1ccc(/C=C2\CC/C(=C\c3ccc(OC(=O)CC)c(OC)c3)C2=O)cc1OC

inhibition [4]: 93.3%
SMILES: O=S(=O)(c1cn(CCF)cn1)n1ncc2ncc(-c3cn[nH]c3)nc21

inhibition [4]: > 90%
SMILES: Cn1cc(-c2cnc3cnn(S(=O)(=O)c4ccccc4)c3n2)cn1
